Paper PMC11085134, “Chemical Constituents and Anticancer Activities of Marine-Derived Fungus Trichoderma lixii” (Molecules, 2024)
“Also recorded” adds a separate entry of the source. Where two headings read alike, the source gives them in different places.

Experiments:
[1] = tested on: KMS-11 human myeloma cell line; assay: Antiproliferative WST-8 assay, KMS-11; assay type: cell-based; details: read-out: Antiproliferative Activity (IC50 ± SE) KMS-11
Description: (§1) The assessment of antiproliferative effects is a fundamental in vitro assay in the early stages of drug discovery for the screening of potential anticancer compounds that merit further investigation and development for their therapeutic potential in the fight against cancer. The antiproliferative activity of all isolated compounds against three cancer cell lines (KMS-11, HT-29, and PANC-1) was examined by WST-8 based assay according to the manufacturer’s instructions.
(§2) The antiproliferative activity against cancer and normal cell lines was investigated by a WST-8 based assay. […] Compounds to be tested were dissolved in DMSO for stock solution (20 μg/mL) and the final concentration of DMSO was 0.5%. Then, 100 μL of corresponding medium containing 10% WST-8 (Nacalai Tesque, Inc.) was added and incubated for up to 4 h. The absorbance of the formazan products was measured at 450 nm using an iMark^TM microplate reader (Bio-Rad Laboratories, Inc. Hercules, CA, USA). […] Cisplatin (Fujifilm Wako Pure Chemical Corporation) was used as a positive control.

[2] = tested on: HT-29 human colorectal cell line; assay: Antiproliferative WST-8 assay, HT-29; assay type: cell-based; details: read-out: Antiproliferative Activity (IC50 ± SE) HT-29
Description: as §1, §2

[3] = tested on: PANC-1 human pancreas cell line; assay: Antiproliferative WST-8 assay, PANC-1; assay type: cell-based; details: read-out: Antiproliferative Activity (IC50 ± SE) PANC-1
Description: as §1, §2

[4] = tested on: HUVEC (human umbilical vein endothelial cells); assay: Antiproliferative WST-8 assay, HUVEC; assay type: cell-based; details: 48 h, normal cell line, read-out: Antiproliferative Activity (IC50 ± SE) HUVEC
Protocol: The antiproliferative activity of all eleven isolated compounds against normal cell line HUVEC was also examined by WST-8 based assay (Table 2). […] Further extensive structural modifications and in-depth structure–activity relationship studies are required to enhance efficacy and reduce the side effects on normal cells.
as §2

PANC-1 cancer cells = assay: Anti-austerity assay (cytotoxicity under glucose starvation vs normal glucose); details: for Anti-Austerity Activity Selectivity: Glucose − versus Glucose +; for Selective index (SI): IC50 high glucose versus no glucose media
Protocol: Human myeloma KMS-11, colorectal HT-29, and pancreatic PANC-1 cancer cells were obtained from the Japanese Collection of Research Bioresources (JCRB) Cell Bank (JCRB1179, Osaka, Japan), the American Type Culture Collection (ATCC, HTB-38, Manassas, VA, USA), and the Riken BioResource Research Center (BRC, RCB2095, Ibaraki, Japan), respectively. KMS-11, HT-29, and PANC-1 were cultured in Roswell Park Memorial Institute (RPMI)-1640 medium (Nacalai Tesque, Inc.), McCoy’s 5A medium (Gibco Thermo Fisher Scientific Inc., Waltham, MA, USA), and Dulbecco’s Modified Eagle Medium (DMEM) high glucose (Nacalai Tesque, Inc.), respectively. The culture media contained 10% fetal bovine serum (FBS, Equitech-Bio Inc., Kerrville, TX, USA) and 50 μg/mL kanamycin (Fujifilm Wako Pure Chemical Corporation, Osaka, Japan). To induce cell adaptation to nutrient starvation, PANC-1 was cultured in DMEM no glucose (Nacalai Tesque, Inc.) containing 10% dialyzed FBS (Equitech-Bio Inc.) and 50 μg/mL kanamycin. Human umbilical vein endothelial cells (HUVEC) were obtained from Kurabo Industries Ltd., Osaka, Japan (KE-4109) and cultured in HuMedia-EB2 (Kurabo Industries Ltd.) supplemented with HuMedia-EG (2% FBS, 10 ng/mL human epidermal growth factor, 1.34 μg/mL hydrocortisone, antibacterial agents, 50 μg/mL gentamicin and 50 ng/mL amphotericin B, 5 ng/mL human fibroblast growth factor-B, and 10 μg/mL heparin). Cells were incubated in a humidified incubator at 37 °C in an atmosphere of 5% CO2.
The anti-austerity activity against PANC-1 cell line was investigated by a WST-8 based assay according to the method described above. PANC-1 cells were plated in a 96-well flat bottom plate at a high density of 10,000 cells/100 μL/well in a DMEM high glucose medium overnight. The medium was removed, washed with phosphate-buffered saline (PBS, Nissui Pharmaceutical Co., Ltd., Tokyo, Japan) twice, and then replaced with either DMEM high glucose or DMEM no glucose. After incubation for 12 h, crude extracts (final concentration 100 μg/mL) or serially diluted compounds were added, and the cells were incubated for an additional 12 h. […] Selective index (SI) was based on the difference between the IC50 values obtained from the high glucose and no glucose media. Antimycin A was used as a positive control.

[5] = tested on: complex II in the mitochondrial electron transport chain; design: method as in PMID 31435860; details: cited from earlier work
[6] = tested on: KMS-11, HT-29, and PANC-1 cancer cell lines; assay: Antiproliferative activity, summary over the three cancer cell lines; assay type: cell-based, human; details: for IC50: Homo sapiens, 48 h, KMS-11, HT-29 and PANC-1, read-out: IC50, antiproliferative, over all tested cancer cell lines
Description: as §1, §2

[7] = design: method as in PMID 31030449, PMID 36005532; details: cited from earlier work
[8] = design: method as in PMID 31030449, PMID 36005532; details: cited from earlier work; remark: listed apart in the source
[9] = tested on: mouse lymphoma L5178Y cell line; design: method as in earlier work; details: at 28 μM; cited from earlier work
human cervical HeLa = tested on: human cervical HeLa; design: method as in PMID 29144133; details: at 50 μM; cited from earlier work
colon HCT-116 = tested on: colon HCT-116; design: method as in PMID 29144133; details: at 50 μM; cited from earlier work
breast MCF-7 = tested on: breast MCF-7; design: method as in PMID 29144133; details: at 50 μM; cited from earlier work
lung A549 = tested on: lung A549; design: method as in PMID 29144133; details: at 50 μM; cited from earlier work
leukemia K562 = tested on: leukemia K562; design: method as in PMID 29144133; details: at 50 μM; cited from earlier work
leukemia HL-60 = tested on: leukemia HL-60; design: method as in PMID 29144133; details: at 50 μM; cited from earlier work
[10] = design: method as in PMID 25659618; details: oxygen-labile conjugated diene units; cited from earlier work
Escherichia coli = tested on: Escherichia coli; design: method as in PMID 26728965, PMID 32676071, PMID 32077325, doi:10.1007/s10600-022-03814-7; details: cited from earlier work
[11] = tested on: complex I in helminth mitochondria; details: cited from earlier work
[12] = Homo sapiens, PANC-1, 12 h, read-out: Anti-Austerity Activity (IC50 ± SE) Glucose +
[13] = Homo sapiens, PANC-1, 12 h, read-out: Anti-Austerity Activity (IC50 ± SE) Glucose −

Structure (SMILES)	IC50 ([1]; Homo sapiens, KMS-11, 48 h) [µM]	IC50 ([2]; Homo sapiens, HT-29, 48 h) [µM]	IC50 ([3]; Homo sapiens, PANC-1, 48 h) [µM]	IC50 ([4]; Homo sapiens, HUVEC) [µM]	Anti-Austerity Activity Selectivity (PANC-1 cancer cells)	IC50 (PANC-1 cancer cells; [12]) [µM]	IC50 (PANC-1 cancer cells; [13]) [µM]	Selective index (SI) (PANC-1 cancer cells)	IC50 [6] [µM]	other results
N.N.[Cl][Pt][Cl] [Cisplatin, reference compound]										IC50 ([1]; 48 h): 4.91 ± 1.06 µM; IC50 ([2]; 48 h): 10.6 ± 0.83 µM; IC50 ([3]; 48 h): 28.6 ± 3.43 µM; IC50 [4]: 13.7 ± 2.57 µM; IC50 (PANC-1 cancer cells; read-out: Anti-Austerity Activity (IC50 ± SE) Glucose +, 12 h, normal glucose (DMEM high glucose)): > 100 µM; IC50 (PANC-1 cancer cells; read-out: Anti-Austerity Activity (IC50 ± SE) Glucose −, 12 h, glucose starvation (DMEM no glucose)): > 100 µM; IC50 (PANC-1 cancer cells; read-out: IC50 against PANC-1 under both glucose starvation and normal glucose conditions, 12 h, both Glucose − and Glucose +): > 100 µM
COc1ccc(C2SSC34CC5(O)C(Cl)C=CC(O)C5ON3C(=O)C2NC4=O)c(O)c1OC (stereo not shown) [Compound 4, DC1149B]	7.6 ± 0.4	39.2 ± 4.6	24.7 ± 4.44	6.94 ± 0.86	selective	213 ± 4.07	22.4 ± 2.5	10		Inhibition of complex II in the mitochondrial electron transport chain [5]: inhibition
COc1cc(O)c2c(=O)c(C)c(C)oc2c1 [Compound 8, 5-hydroxy-2,3-dimethyl-7-methoxychromone]	> 100	> 100	> 100	> 100		> 100	> 100		> 100	Antimicrobial activity [7]: weak or no; DPPH scavenging activity [8]: weak or no
COc1ccc2cc(NC(=O)C3=NO[C@H]4[C@H](O)C=C[C@@H](Cl)[C@@]4(O)C3)c(=O)oc2c1OC [Compound 2, trichodermamide B]	1.38 ± 0.12	0.73 ± 0.12	3.58 ± 0.32	1.69 ± 0.26	did not display selectivity; also recorded: not selective	11.6 ± 1.59	17.8 ± 4.75		0.7 to 3.6	
COc1ccc2cc(NC(=O)C3=NO[C@H]4[C@H](O)C=C[C@@H](O)[C@@]4(O)C3)c(=O)oc2c1OC [Compound 1, trichodermamide A]	> 100	> 100	> 100	> 100		> 100	> 100			IC50 (PANC-1 cancer cells; Homo sapiens, PANC-1, 12 h, read-out: IC50 against PANC-1 under both glucose starvation and normal glucose conditions): > 100 µM; Antiproliferative activity in words ([6]; all tested cell lines): completely inactive
CC(C)[C@@H](C)/C=C/[C@@H](C)[C@H]1CC[C@@H]2[C@]1(C)CC[C@H]1[C@]23C=C[C@]2(C[C@@H](O)CC[C@]12C)OO3 [Compound 5, ergosterol peroxide]	> 100	> 100	> 100	> 100		> 100	> 100		> 100	
CCCCCC[C@H]1C(=O)O[C@H](C)[C@H](NC(=O)c2cccc(NC=O)c2O)C(=O)O[C@@H](C)[C@@H]1OC(=O)CC(C)C [Antimycin A, reference compound]					selective	> 300	0.0162 ± 0.00026	≥ 18,480		
COc1ccc2cc(NC(=O)[C@@]34C[C@@]5(O)C(ON3)[C@H](O)C=C[C@H]5S4)c(=O)oc2c1OC (stereo partly shown) [Compound 3, aspergillazine A]	38 ± 7.72	22.2 ± 3.09	50.3 ± 4.21	26.2 ± 5.51	selective	> 400	75.6 ± 4.08	≥ 5		
CCC(C)C=CC=C(C)CC(C)C=CC=CC1OC(=O)C(O)C2OC12C (stereo not shown) [Compound 9, nafuredin A]	6.9 ± 1.84	11.9 ± 0.55	15.3 ± 0.44	2.45 ± 0.16	selective	76.7 ± 3.22	49 ± 1.31	2	6.9 to 15.3	Cytotoxicity [9]: no cytotoxicity; Cytotoxicity (human cervical HeLa): no cytotoxicity; Cytotoxicity (colon HCT-116): no cytotoxicity; Cytotoxicity (breast MCF-7): no cytotoxicity; Cytotoxicity (lung A549): no cytotoxicity; Cytotoxicity (leukemia K562): no cytotoxicity; Cytotoxicity (leukemia HL-60): no cytotoxicity; Stability in air [10]: unstable in air; Antibacterial activity against Escherichia coli (Escherichia coli): exhibited antibacterial activity; Inhibition of complex I in helminth mitochondria [11]: selective inhibition
